Results as given in US6586438B2, “Antidiabetic formulation and method” (Bristol-Myers Squibb Co., priority 1999, dated 2003).

Key:
Type in all cases: in vivo, human
[1] = test system: drug naive patients with type 2 diabetes mellitus; test: Double-blind first line therapy clinical study: hemoglobin A1c (HbA1c); settings: for frequency of subjects achieving glycemic target of HbA1c<7%: following 20 weeks of double-blind therapy; for glycemic response for baseline HbA1c levels >9%: initial therapy
Description: The dosage strengths of fixed combination product evaluated included metformin 250 mg with glyburide 1.25 mg, and metformin 500 mg with glyburide 2.5 mg. Glycemic control was assessed using Hemoglobin A1c (HbA1c), the gold-standard measure of long-term glycemic control. Mean change from baseline in HbA1c following a 20 week treatment period (4 weeks stable once daily dose, 4 week titration and 12 weeks stable dose) were compared. The treatment phase continued for an additional 12 weeks to assess durability of efficacy. This study was a 34 week, multicenter, randomized, placebo-controlled, double-blind, parallel study with an optional long-term, open-label treatment phase. The primary outcome variable for efficacy was the change from baseline in HbA1c of the two combination therapies relative to placebo following 20 weeks of randomized treatment. 2. […] Therapeutic plasma glucose response will be defined as a FPG<126 mg/dL (based on current ADA guidelines for FPG). […] Patients were drug naive or had no oral antihyperglycemic therapy for the 2 months prior to screening. […] However, recruitment continued for up to 6 months to recruit up to a maximum of 150 patients per arm to provide additional safety information. The design included 3 periods as follows: Period B began the randomized, double-blind, parallel quadruple dummy treatment phase. Eligible patients were randomized to 1 of 5 study arms which included placebo, glyburide monotherapy, metformin monotherapy, and two different dose strengths of fixed combination metformin/glyburide product (Examples 1 and 2). Subjects were maintained on once daily dosing for a 4 week period so that the contribution of the individual components of the combination product can be assessed by short term glycemic parameters. Period C was the continuation of the randomized, double-blind treatment phase. Subjects were titrated for glycemic control over the first four weeks then dose was maintained for a 24 week stable dose treatment segment. Analysis for the primary outcome, the change from baseline in HbA1c of the two combination therapies (Examples 1 and 2) relative to placebo, was assessed at week 16 of Period C which was after 20 weeks of randomized, double-blind treatment. This was done at this time as there had been adequate time for stabilization of HbA1c and for safety reasons as it was anticipated that a high number of placebo treated patients may have had to discontinue randomized study medication due to insufficient glycemic control as treatment duration was extended. […] The study remained blinded and those subjects who discontinued randomized study drug due to lack of efficacy were eligible to begin the long-term, open-label treatment phase with fixed combination product. Following completion of the single-blind lead-in phase (Period A), qualifying subjects commenced therapy in the randomized, double-blind treatment phase (Period B). […] Following completion of the 4 week stable once daily dose phase (Period B) subjects continued the same randomized therapy in the 28 week titration/stable dose treatment phase (Period C). Study medication was titrated at visits Cl, C15 and C29. Medication was dosed with the first morning meal and with the evening meal. […] After the 4 week titration segment in Period C, subjects continued on a stable dose of study medication for the remainder of Period C.

[2] = test system: drug naive patients with type 2 diabetes mellitus; test: Double-blind first line therapy clinical study: post-prandial glucose (PPG) and PPG excursion; settings: for 2-hour postprandial glucose excursion from a fasting baseline: placebo 40.3 mg/dL; for decrease in post-prandial glucose excursion: week 20
Description: The term “post-prandial excursion” as employed herein refers to the difference between post-prandial glucose (PPG) and fasting plasma glucose (FPG). […] The dosage strengths of fixed combination product evaluated included metformin 250 mg with glyburide 1.25 mg, and metformin 500 mg with glyburide 2.5 mg. Glycemic control was assessed using Hemoglobin A1c (HbA1c), the gold-standard measure of long-term glycemic control. Mean change from baseline in HbA1c following a 20 week treatment period (4 weeks stable once daily dose, 4 week titration and 12 weeks stable dose) were compared. The treatment phase continued for an additional 12 weeks to assess durability of efficacy. This study was a 34 week, multicenter, randomized, placebo-controlled, double-blind, parallel study with an optional long-term, open-label treatment phase. […] 3. […] Patients were drug naive or had no oral antihyperglycemic therapy for the 2 months prior to screening. […] However, recruitment continued for up to 6 months to recruit up to a maximum of 150 patients per arm to provide additional safety information. The design included 3 periods as follows: Period B began the randomized, double-blind, parallel quadruple dummy treatment phase. Eligible patients were randomized to 1 of 5 study arms which included placebo, glyburide monotherapy, metformin monotherapy, and two different dose strengths of fixed combination metformin/glyburide product (Examples 1 and 2). Subjects were maintained on once daily dosing for a 4 week period so that the contribution of the individual components of the combination product can be assessed by short term glycemic parameters. Period C was the continuation of the randomized, double-blind treatment phase. Subjects were titrated for glycemic control over the first four weeks then dose was maintained for a 24 week stable dose treatment segment. Analysis for the primary outcome, the change from baseline in HbA1c of the two combination therapies (Examples 1 and 2) relative to placebo, was assessed at week 16 of Period C which was after 20 weeks of randomized, double-blind treatment. This was done at this time as there had been adequate time for stabilization of HbA1c and for safety reasons as it was anticipated that a high number of placebo treated patients may have had to discontinue randomized study medication due to insufficient glycemic control as treatment duration was extended. […] The study remained blinded and those subjects who discontinued randomized study drug due to lack of efficacy were eligible to begin the long-term, open-label treatment phase with fixed combination product. Following completion of the single-blind lead-in phase (Period A), qualifying subjects commenced therapy in the randomized, double-blind treatment phase (Period B). […] Following completion of the 4 week stable once daily dose phase (Period B) subjects continued the same randomized therapy in the 28 week titration/stable dose treatment phase (Period C). Study medication was titrated at visits Cl, C15 and C29. Medication was dosed with the first morning meal and with the evening meal. […] After the 4 week titration segment in Period C, subjects continued on a stable dose of study medication for the remainder of Period C.

[3] = test system: drug naive patients with type 2 diabetes mellitus; test: Double-blind first line therapy clinical study: body weight and plasma lipid profile; settings: as glycemic control improved
Text: This study was a 34 week, multicenter, randomized, placebo-controlled, double-blind, parallel study with an optional long-term, open-label treatment phase. […] Patients were drug naive or had no oral antihyperglycemic therapy for the 2 months prior to screening. […] However, recruitment continued for up to 6 months to recruit up to a maximum of 150 patients per arm to provide additional safety information. The design included 3 periods as follows: Period B began the randomized, double-blind, parallel quadruple dummy treatment phase. Eligible patients were randomized to 1 of 5 study arms which included placebo, glyburide monotherapy, metformin monotherapy, and two different dose strengths of fixed combination metformin/glyburide product (Examples 1 and 2). Subjects were maintained on once daily dosing for a 4 week period so that the contribution of the individual components of the combination product can be assessed by short term glycemic parameters. Period C was the continuation of the randomized, double-blind treatment phase. […] Analysis for the primary outcome, the change from baseline in HbA1c of the two combination therapies (Examples 1 and 2) relative to placebo, was assessed at week 16 of Period C which was after 20 weeks of randomized, double-blind treatment. […]

[4] = Week 20 of double-blind therapy
[5] = Week 32 of double-blind therapy

| Structure (SMILES) | mean HbA1c level [1, 4] [%] | mean HbA1c level [1, 5] [%] | frequency of subjects achieving glycemic target of HbA1c<7% [1] [%] | glycemic response for baseline HbA1c levels >9% [1] | 2-hour postprandial glucose excursion from a fasting baseline [2] [mg/dL] | decrease in post-prandial glucose excursion [2] | early weight gain [3] [kg] | postprandial glucose excursion lowering, comparison in words ([2]; evaluating the excursion rather than the absolute value) |
| --- | --- | --- | --- | --- | --- | --- | --- | --- |
| COc1ccc(Cl)cc1C(=O)NCCc1ccc(S(=O)(=O)NC(=O)NC2CCCCC2)cc1 [glyburide] | 6.64 | 6.78 | 60 | plateauing of glycemic response | 38.2 | 6.8 | 2 |  |
| CN(C)C(=N)N=C(N)N [metformin] | 6.79 | 6.96 | 50 | plateauing of glycemic response | 29.5 | 15.2 |  | better postprandial glucose lowering than glyburide and placebo |
